Laboratory results: patent US20240382494A1, “THERAPEUTIC COMPOUNDS” (priority 2023, published 2024)

Legend:
[1] = system: SARS-CoV-2 viral replication; conditions: cited from earlier work
SARS-CoV-2 PLpro = SARS-CoV-2 PLpro (Severe acute respiratory syndrome coronavirus 2, UniProt P0DTD1); experiment: FRET-based PLpro enzymatic assay; type: biochemical; conditions: 200 nM PLpro, 10 μM FRET substrate, 30 min preincubation at 30° C.; read-out: IC50
How it was run: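 200 nM PLpro in 50 mM Hepes pH 7.5, 0.01% Triton X-100, 5 mM DTT, preincubated with compound 30 min at 30 °C; 10 μM final FRET substrate.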

[2] = Cytotoxicity assay in Vero E6 cells (neutral red uptake); type: cell-based; conditions: African green monkey; Vero E6 cells, 2 days at 37° C., neutral red uptake; read-out: Vero CC50

| SMILES | EC50 [1] | IC50 (SARS-CoV-2 PLpro) | CC50 at 2 days [2] |
| --- | --- | --- | --- |
| Cc1ccc(N)cc1C(=O)N[C@H](C)c1cccc2ccccc12 [GRL0617] | ~20 µM |  |  |
| Cc1ccc(N2CCN(C)C3(CC3)C2)cc1C(=O)N[C@H](C)c1cc(-c2ccn(C)n2)nc2ccccc12 [Example 101, (R)-2-methyl-N-(1-(2-(1-methyl-1H-pyrazol-3-yl)quinolin-4-yl)ethyl)-5-(4-methyl-4,7-diazaspiro[2.5]octan-7-yl)benzamide] |  | 0.5 to 1 µM | 40.8 ± 4.27 µM |
| Cc1ccc(OCCN(C)C)cc1C(=O)N[C@H](C)c1cc(-c2ccc(CN)s2)nc2ccccc12 [Example 55, (R)—N-(1-(2-(5-(aminomethyl)thiophen-2-yl)quinolin-4-yl)-ethyl)-5-(2-(dimethylamino)ethoxy)-2-methylbenzamide] |  | < 0.5 µM | 34.6 ± 8.18 µM |
| Cc1ccc(N(C)CC2CN(C)C2)cc1C(=O)N[C@H](C)c1cc(-c2cnn(C)c2)nc2ccccc12 [Example 89, (R)-2-methyl-5-(methyl((1-methylazetidin-3-yl)methyl)amino)-N-(1-(2-(1-methyl-1H-pyrazol-4-yl)quinolin-4-yl)ethyl)benzamide] |  | 1 to 5 µM | 89.3 µM |
| Cc1ccc(OCCN(C)C)cc1C(=O)N[C@H](C)c1cc(-c2cncnc2)nc2ccccc12 [Example 57, (R)-5-(2-(dimethylamino)ethoxy)-2-methyl-N-(1-(2-(pyrimidin-5-yl)quinolin-4-yl)ethyl)benzamide] |  | 0.5 to 1 µM | 74.6 ± 17.4 µM |
| Cc1ccc(OCCN(C)C)cc1C(=O)N[C@H](C)c1cc(-c2ccc(CN3CCOCC3)s2)nc2ccccc12 [Example 16, (R)-5-(2-(dimethylamino)ethoxy)-2-methyl-N-(1-(2-(5-(morpholinomethyl)thiophen-2-yl)quinolin-4-yl)ethyl)benzamide] |  | < 0.5 µM | 30.6 ± 10.6 µM |
| Cc1ccc(N2CC(N(C)C)C2)cc1C(=O)N[C@H](C)c1cc(-c2cnn(C)c2)nc2ccccc12 [Example 95, (R)-5-(3-(dimethylamino)azetidin-1-yl)-2-methyl-N-(1-(2-(1-methyl-1H-pyrazol-4-yl)quinolin-4-yl)ethyl)benzamide] |  | 0.5 to 1 µM | 311 ± 21.1 µM |
| Cc1ccc(OCCN(C)C)cc1C(=O)N[C@H](C)c1cc(-c2cccs2)nc2ccccc12 [Example 1, (R)-5-(2-(dimethylamino)ethoxy)-2-methyl-N-(1-(2-(thiophen-2-yl)quinolin-4-yl)ethyl)benzamide] |  | < 0.5 µM | 12.2 ± 0.85 µM |
| CSc1ccc(-c2cc([C@@H](C)NC(=O)c3cc(OCCN(C)C)ccc3C)c3ccccc3n2)cc1 [Example 70, (R)-5-(2-(dimethylamino)ethoxy)-2-methyl-N-(1-(2-(4-(methylthio)phenyl)quinolin-4-yl)ethyl)benzamide] |  | < 0.5 µM | 8.5 ± 2.01 µM |
| Cc1ccc(OC[C@@H]2CCN2C)cc1C(=O)NC1(c2cc(-c3cnn(C)c3)nc3ccccc23)CC1 [Example 115, (S)-2-methyl-N-(1-(2-(1-methyl-1H-pyrazol-4-yl)quinolin-4-yl)cyclopropyl)-5-((1-methylazetidin-2-yl)methoxy)benzamide] |  | < 0.5 µM | 127 ± 7.89 µM |
| Cc1ccc(N2CC[C@@H](N(C)C)C2)cc1C(=O)N[C@H](C)c1cc(-c2ccn(C)n2)nc2ccccc12 [Example 100, 5-((R)-3-(dimethylamino)pyrrolidin-1-yl)-2-methyl-N—((R)-1-(2-(1-methyl-1H-pyrazol-3-yl)quinolin-4-yl)ethyl)benzamide] |  | < 0.5 µM | 30.6 ± 1.72 µM |
| Cc1ccc(OCCN(C)C)cc1C(=O)N[C@H](C)c1cc(-c2ccco2)nc2ccccc12 [Example 4, (R)5-(2-(dimethylamino)ethoxy)-N-(1-(2-(furan-2-yl)quinolin-4-yl)ethyl)-2-methylbenzamide] |  | < 0.5 µM | 57.3 ± 20.4 µM |
| Cc1ccc(OCCN(C)C)cc1C(=O)N[C@H](C)c1cc(-c2cccc3[nH]ncc23)nc2ccccc12 [Example 50, (R)—N-(1-(2-(1H-indazol-4-yl)quinolin-4-yl)ethyl)-5-(2-(dimethylamino)ethoxy)-2-methylbenzamide] |  | < 0.5 µM | 59.5 ± 25.4 µM |
| Cc1ccc(OCCN(C)C)cc1C(=O)N[C@H](C)c1cc(-c2cnc3[nH]ccc3c2)nc2ccccc12 [Example 60, (R)—N-(1-(2-(1H-pyrrolo[2,3-b]pyridin-5-yl)-quinolin-4-yl)ethyl)-5-(2-(dimethylamino)ethoxy)-2-methylbenzamide] |  | > 5 µM | 25.8 ± 2.25 µM |
| CCn1ccc(-c2cc([C@@H](C)NC(=O)c3cc(N4CCN(C)CC4)ccc3C)c3ccccc3n2)n1 [Example 108, (R)—N-(1-(2-(1-ethyl-1H-pyrazol-3-yl)quinolin-4-yl)ethyl)-2-methyl-5-(4-methylpiperazin-1-yl)benzamide] |  | < 0.5 µM | 18.5 ± 1.4 µM |
| Cc1ccc(OCCN(C)C)cc1C(=O)N[C@@H](C)c1cc(-c2cnn(C3CC3)c2)nc2ccccc12 [Example 20, (S)—N-(1-(2-(1-cyclopropyl-1H-pyrazol-4-yl)quinolin-4-yl)ethyl)-5-(2-(dimethylamino)ethoxy)-2-methylbenzamide] |  | < 0.5 µM | 59.6 ± 8.56 µM |
| Cc1ccc(OCCN(C)C)cc1C(=O)N[C@H](C)c1cc(-c2ccc(N)nc2)nc2ccccc12 [Example 9, (R)—N-(1-(2-(6-aminopyridin-3-yl)quinolin-4-yl)ethyl)-5-(2-(dimethylamino)ethoxy)-2-methylbenzamide] |  | < 0.5 µM | 36.2 ± 6.83 µM |
